From PMC4237513 (European Journal of Medicinal Chemistry, 2014)
Like-named read-outs stand apart in the source and are kept apart here.

Legend:
[1] = system: dengue virus (DENV); assay: microbe, parasite or virus in culture; format: cell-based; settings: for EC50: read-out: Dengue EC50
[2] = system: yellow fever virus (YFV); assay: microbe, parasite or virus in culture; format: cell-based; settings: for EC50: read-out: Yellow fever EC50
[3] = in vitro; settings: chlorocebus sabaeus
[4] = Yellow fever virus, Vero B, 168 h

O=C(NCc1ccccc1-c1ccncc1)c1nc[nH]c1C(=O)Nc1ccc(F)cc1 [15c, N^5-(4-fluorophenyl)-N^4-(2-(pyridin-4-yl)benzyl)-1H-imidazole-4,5-dicarboxami-de]
EC50 ([1]; Dengue virus, Vero B, 168 h): 1.92 µM | EC50 [1]: 1.93 µM | EC50 [2, 4]: 3.9 µM | CC50 at 168 h ([3]; Dengue CC50): 50.1 µM | CC50 ([3]; Yellow fever CC50): > 120 µM

O=C(Nc1ccc(F)cc1)c1nccnc1C(=O)Nc1ccccc1-c1cccnc1 [20e, N^2-(4-fluorophenyl)-N^3-(2-(pyridin-3-yl)phenyl) pyrazine-2,3-dicarboxamide]
EC50 ([1]; Dengue virus, Vero B, 168 h): 23.2 µM | EC50 [2, 4]: 47.5 µM | CC50 ([3]; Dengue CC50): > 120 µM | CC50 ([3]; Yellow fever CC50): > 119 µM

Cc1ccc(NC(=O)c2nccnc2C(=O)Nc2ccccc2-c2cccnc2)cc1 [20l, N^2-(2-(pyridin-3-yl)phenyl)-N^3-(p-tolyl) pyrazine-2,3-dicarboxamide]
EC50 ([1]; Dengue virus, Vero B, 168 h): 14.6 µM | EC50 [2, 4]: > 122 µM | CC50 ([3]; Dengue CC50): > 128 µM | CC50 ([3]; Yellow fever CC50): > 122 µM

Cc1ccc(NC(=O)c2nc[nH]c2C(=O)Nc2ccc(F)cc2)c(-c2ccsc2)c1 [15h, N^5-(4-fluorophenyl)-N^4-(4-methyl-2-(thiophen-3-yl)phenyl)-1H-imidazole-4,5-dicarboxamide]
EC50 ([1]; Dengue virus, Vero B, 168 h): 48.8 µM | EC50 [2, 4]: > 119 µM | CC50 ([3]; Dengue CC50): > 117 µM | CC50 ([3]; Yellow fever CC50): > 119 µM

Cc1cnc(NC(=O)c2[nH]cnc2C(=O)Nc2ccccc2)c(-c2ccc(C)s2)c1 [15o, N^5-(5-methyl-3-(5-methylthiophen-2-yl)pyridin-2-yl)-N^4-phenyl-1H-imidazole-4,5-dicarboxamide]
DENV inhibitory activity in words [1]: inactive | EC50 ([1]; Dengue virus, Vero B, 168 h): > 120 µM | EC50 [2, 4]: > 120 µM | CC50 at 168 h ([3]; Dengue CC50): 26.4 µM | CC50 ([3]; Yellow fever CC50): > 119 µM

Cc1ccc(NC(=O)c2nccnc2C(=O)Nc2ccc(C)cc2-c2ccncc2)cc1 [20n, N^2-(4-methyl-2-(pyridin-4-yl)phenyl)-N^3-(p-tolyl) pyrazine-2,3-dicarboxamide]
EC50 ([1]; Dengue virus, Vero B, 168 h): 11.9 µM | EC50 [2, 4]: 30.9 µM | CC50 ([3]; Dengue CC50): > 119 µM | CC50 ([3]; Yellow fever CC50): > 118 µM

Cc1ccc(NC(=O)c2nc[nH]c2C(=O)Nc2ccc(F)cc2)c(-c2ccco2)c1 [15i, N^5-(4-fluorophenyl)-N^4-(2-(furan-2-yl)-4-methylphenyl)-1H-imidazole-4,5-dicarboxamide]
EC50 ([1]; Dengue virus, Vero B, 168 h): > 124 µM | CC50 ([3]; Dengue CC50): > 124 µM

Cc1ccc(NC(=O)c2nc[nH]c2C(=O)Nc2ccc(F)cc2)c(-c2cc(C)n[nH]2)c1 [15a, N^5-(4-fluorophenyl)-N^4-(4-methyl-2-(3-methyl-1H-pyrazol-5-yl)phenyl)-1H-imidazole-4,5-dicarboxamide]
EC50 ([1]; Dengue virus, Vero B, 168 h): 2.5 µM | EC50 [2, 4]: 3.37 µM | EC50 [2]: 3.47 µM | CC50 ([3]; Dengue CC50): > 120 µM | CC50 ([3]; Yellow fever CC50): > 120 µM

Cc1ccc(NC(=O)c2nc[nH]c2C(=O)NCCc2ccc(F)cc2)c(-c2ccco2)c1 [15n, N^5-(4-fluorophenethyl)-N^4-(2-(furan-2-yl)-4-methylphenyl)-1H-imidazole-4,5-dicarboxamide]
EC50 ([1]; Dengue virus, Vero B, 168 h): 3.77 µM | CC50 ([3]; Dengue CC50): > 116 µM

Cc1ccc(NC(=O)c2nccnc2C(=O)Nc2ccccc2-c2ccncc2)cc1 [20k, N^2-(2-(pyridin-4-yl)phenyl)-N^3-(p-tolyl) pyrazine-2,3-dicarboxamide]
EC50 ([1]; Dengue virus, Vero B, 168 h): 4.71 µM | EC50 [2, 4]: 12.5 µM | CC50 ([3]; Dengue CC50): > 122 µM | CC50 ([3]; Yellow fever CC50): > 125 µM

O=C(NCc1ccc(-c2ccncc2)cc1)c1nccnc1C(=O)Nc1ccc(F)cc1 [20a, N^2-(4-fluorophenyl)-N^3-(4-(pyridin-4-yl)benzyl) pyrazine-2,3-dicarboxamide]
fold increase in anti-DENV potency [1]: 2 fold | EC50 ([1]; Dengue virus, Vero B, 168 h): 0.93 µM | EC50 [2, 4]: 7.49 µM | CC50 ([3]; Dengue CC50): > 118 µM | CC50 ([3]; Yellow fever CC50): > 120 µM

Cc1ccc(NC(=O)c2nccnc2C(=O)NCc2ccc(-c3ccncc3)cc2)cc1 [20h, N^2-(4-(pyridin-4-yl)benzyl)-N^3-(p-tolyl) pyrazine-2,3-dicarboxamide]
EC50 ([1]; Dengue virus, Vero B, 168 h): 16.6 µM | EC50 [2, 4]: 36.8 µM | CC50 at 168 h ([3]; Dengue CC50): 74.7 µM | CC50 ([3]; Yellow fever CC50): > 110 µM

Cc1ccc(NC(=O)c2nccnc2C(=O)Nc2ccc(F)cc2)c(-c2cccnc2)c1 [20b, N^2-(4-fluorophenyl)-N^3-(4-methyl-2-(pyridin-3-yl)phenyl) pyrazine-2,3-dicarboxamide]
DENV inhibitory activity in words [1]: strongly inhibiting | EC50 ([1]; Dengue virus, Vero B, 168 h): 0.93 µM | EC50 [2, 4]: 13.1 µM | CC50 ([3]; Dengue CC50): > 118 µM | CC50 ([3]; Yellow fever CC50): > 118 µM

O=C(NCc1ccc(-c2ccsc2)cc1)c1nc[nH]c1C(=O)Nc1ccc(F)cc1 [15f, N^5-(4-fluorophenyl)-N^4-(4-(thiophen-3-yl)benzyl)-1H-imidazole-4,5-dicarboxamide]
EC50 ([1]; Dengue virus, Vero B, 168 h): 33.7 µM | EC50 [2, 4]: 28.8 µM | CC50 at 168 h ([3]; Dengue CC50): 20.2 µM | CC50 ([3]; Yellow fever CC50): > 119 µM

Cc1ccc(NC(=O)c2nc[nH]c2C(=O)Nc2ccccc2)c(-c2ccsc2)c1 [15j, N^4-(4-methyl-2-(thiophen-3-yl)phenyl)-N^5-phenyl-1H-imidazole-4,5-dicarboxamide]
EC50 ([1]; Dengue virus, Vero B, 168 h): > 124 µM | EC50 [2, 4]: 9.2 µM | CC50 ([3]; Dengue CC50): > 124 µM | CC50 ([3]; Yellow fever CC50): > 120 µM

Cc1ccc(NC(=O)c2nccnc2C(=O)NCc2ccc(-c3cccnc3)cc2)cc1 [20j, N^2-(4-(pyridin-3-yl)benzyl)-N^3-(p-tolyl) pyrazine-2,3-dicarboxamide]
EC50 ([1]; Dengue virus, Vero B, 168 h): 6.75 µM | EC50 [2, 4]: 73.1 µM | CC50 ([3]; Dengue CC50): > 116 µM | CC50 ([3]; Yellow fever CC50): > 124 µM

O=C(NCc1ccccc1-c1ccncc1)c1nccnc1C(=O)Nc1ccc(F)cc1 [20f, N^2-(4-fluorophenyl)-N^3-(2-(pyridin-4-yl)benzyl) pyrazine-2,3-dicarboxamide]
fold decrease in activity against DENV [1]: 20 fold | EC50 ([1]; Dengue virus, Vero B, 168 h): 40.7 µM | fold decrease in activity against YFV [2]: 6 fold | EC50 [2, 4]: 21.3 µM | CC50 ([3]; Dengue CC50): > 118 µM | CC50 ([3]; Yellow fever CC50): > 127 µM

Cc1ccc(NC(=O)c2[nH]cnc2C(=O)Nc2ccc(C)cc2-c2ccco2)cc1 [15l, N^4-(2-(furan-2-yl)-4-methylphenyl)-N^5-(p-tolyl)-1H-imidazole-4,5-dicarboxamide]
EC50 ([1]; Dengue virus, Vero B, 168 h): 3.47 µM | CC50 ([3]; Dengue CC50): > 125 µM

O=C(NCc1ccc(-c2ccncc2)cc1)c1nc[nH]c1C(=O)Nc1ccc(F)cc1 [15g, N^5-(4-fluorophenyl)-N^4-(4-(pyridin-4-yl)benzyl)-1H-imidazole-4,5-dicarboxamide]
EC50 ([1]; Dengue virus, Vero B, 168 h): > 120 µM | EC50 [2, 4]: > 120 µM | CC50 ([3]; Dengue CC50): > 120 µM | CC50 ([3]; Yellow fever CC50): > 120 µM

Cc1ccc(NC(=O)c2nccnc2C(=O)Nc2ccc(F)cc2)c(-c2ccncc2)c1 [20g, N^2-(4-fluorophenyl)-N^3-(4-methyl-2-(pyridin-4-yl)phenyl)pyrazine-2,3-dicarbox amide]
EC50 ([1]; Dengue virus, Vero B, 168 h): > 117 µM | EC50 [2, 4]: 48.4 µM | CC50 ([3]; Dengue CC50): > 117 µM | CC50 ([3]; Yellow fever CC50): > 125 µM

Cc1cc(-c2ccccc2NC(=O)c2nc[nH]c2C(=O)Nc2ccc(F)cc2)[nH]n1 [15b, N^5-(4-fluorophenyl)-N^4-(2-(3-methyl-1H-pyrazol-5-yl)phenyl)-1H-imidazole-4,5-dicarboxamide]
EC50 ([1]; Dengue virus, Vero B, 168 h): 6.03 µM | EC50 [2, 4]: 1.85 µM | CC50 at 168 h ([3]; Dengue CC50): 21.7 µM | CC50 ([3]; Yellow fever CC50): > 121 µM

O=C(NCc1ccc(-c2cccnc2)cc1)c1nc[nH]c1C(=O)Nc1ccc(F)cc1 [15e, N^5-(4-fluorophenyl)-N^4-(4-(pyridin-3-yl)benzyl)-1H-imidazole-4,5-dicarboxamide]
EC50 ([1]; Dengue virus, Vero B, 168 h): 42.1 µM | EC50 [2, 4]: 11.8 µM | CC50 ([3]; Dengue CC50): > 120 µM | CC50 ([3]; Yellow fever CC50): > 118 µM

O=C(NCc1ccc(-c2cccnc2)cc1)c1nccnc1C(=O)Nc1ccc(F)cc1 [20c, N^2-(4-fluorophenyl)-N^3-(4-(pyridin-3-yl)benzyl) pyrazine-2,3-dicarboxamide]
EC50 ([1]; Dengue virus, Vero B, 168 h): 2.99 µM | EC50 [2, 4]: 8.9 µM | CC50 ([3]; Dengue CC50): > 115 µM | CC50 ([3]; Yellow fever CC50): > 116 µM

Cc1ccc(NC(=O)c2[nH]cnc2C(=O)Nc2ccc(C)cc2-c2ccsc2)cc1 [15k, N^4-(4-methyl-2-(thiophen-3-yl)phenyl)-N^5-(p-tolyl)-1H-imidazole-4,5-dicarboxamide]
EC50 ([1]; Dengue virus, Vero B, 168 h): 2.02 µM | EC50 [2, 4]: > 120 µM | CC50 ([3]; Dengue CC50): > 50 µM | CC50 ([3]; Yellow fever CC50): > 120 µM

Cc1ccc(NC(=O)c2nccnc2C(=O)Nc2ccc(C)cc2-c2cccnc2)cc1 [20i, N^2-(4-methyl-2-(pyridin-3-yl)phenyl)-N^3-(p-tolyl) pyrazine-2,3-dicarboxamide]
EC50 ([1]; Dengue virus, Vero B, 168 h): 10.6 µM | EC50 [2, 4]: 18.4 µM | CC50 at 168 h ([3]; Dengue CC50): 47.5 µM | CC50 at 168 h ([3]; Yellow fever CC50): 75.5 µM

Cc1ccc(NC(=O)c2nc[nH]c2C(=O)NCc2ccccc2)c(-c2ccco2)c1 [15m, N^5-benzyl-N^4-(2-(furan-2-yl)-4-methylphenyl)-1H-imidazole-4,5-dicarboxamide]
DENV inhibitory activity in words [1]: annihilated the inhibitory properties | EC50 ([1]; Dengue virus, Vero B, 168 h): > 125 µM | CC50 ([3]; Dengue CC50): > 125 µM

O=C(NCc1ccccc1-c1ccsc1)c1nc[nH]c1C(=O)Nc1ccc(F)cc1 [15d, N^5-(4-fluorophenyl)-N^4-(2-(thiophen-3-yl)benzyl)-1H-imidazole-4,5-dicarbox amide]
EC50 ([1]; Dengue virus, Vero B, 168 h): 8.88 µM | EC50 [2, 4]: 2.61 µM | CC50 at 168 h ([3]; Dengue CC50): 17.3 µM | CC50 at 168 h ([3]; Yellow fever CC50): 34.5 µM

O=C(Nc1ccc(F)cc1)c1nccnc1C(=O)Nc1ccccc1-c1ccncc1 [20d, N^2-(4-fluorophenyl)-N^3-(2-(pyridin-4-yl)phenyl) pyrazine-2,3-dicarboxamide]
EC50 ([1]; Dengue virus, Vero B, 168 h): 11.7 µM | EC50 [2, 4]: 8.22 µM | CC50 ([3]; Dengue CC50): > 117 µM | CC50 ([3]; Yellow fever CC50): > 123 µM
